Reference: article PMC6774960, “Design, synthesis and biological evaluation of a series of new resveratrol analogues as potential anti-cancer agents” (Royal Society Open Science, 2019)

How the values were obtained:
[1] = test system: normal human hepatocytes LO2 cells; assay: MTT cytotoxicity test, LO2; assay type: cell-based; conditions: 24 h, average of three determinations
Procedure: (§1) Vero cells are non-tumorigenic cell lines and are important raw materials as the research and production of biological products. Vero cells show low tumorigenicity and had been approved for use in the production of human virus vaccines. Thus, Vero cells were chosen as a control for cytotoxicity. All compounds were evaluated for their cell toxicity against Vero and normal human hepatocytes cells line (LO2) using MTT assays.
(§2) The anti-proliferative and cytotoxicity activity was determined using MTT assay. Human cervical carcinoma HeLa cells, human hepatocellular carcinoma HepG2 cells, human lung carcinoma A549 cells were representative in the anti-proliferation assay, which were obtained from the Shanghai Institute of Cell Biology (Shanghai, China). Normal African green monkey kidney Vero cells were a gift from Dr Xiumiao He at Guangxi University for Nationalities. Normal human hepatocytes LO2 cells were a gift from Dr Xing Lin at Guangxi Medical University. The HepG2, Hela, LO2 and Vero cells were cultured in Dulbecco's modified Eagle's medium (DMEM, Gibco) and the A549 cells were cultured in RPMI1640 (Gibco), both media were supplemented with 10% fetal calf serum and antibiotics (100 IU ml^−1 penicillin, 100 IU ml^−1 streptomycin; Amresco).
(§3) Cells were seeded in 96-well microtiter plates at a density of 1 × 10^4 cells well^−1 and incubated with different concentrations of compound (6.25, 12.50, 25.00, 50.00 to 100.00 µM), cisplatin and paclitaxel in RPMI-1640 or DMEM at 37°C with 5% CO2. After 24 h, cell morphology was observed using a light microscope, and then 20 µl of MTT solution (5 mg ml^−1) was added to the well and incubated for 4 h, then cell survival was determined by measuring the optical density (OD) absorbance at a wavelength of 570 nm using an ELISA microplate reader. The inhibition rate (IR) following each compound treatment was determined by the following equation: IR (%) = (1 − ODexp/ODcon) × 100%, where ODexp and ODcon are the OD of the treated and untreated cells, respectively. Cisplatin and paclitaxel were used as positive control drugs.

[2] = test system: HeLa cells; assay: MTT anti-proliferation assay, HeLa; assay type: cell-based, human; conditions: 24 h, average of three determinations
Procedure: (§4) The 22 synthesized resveratrol compounds were evaluated for anti-proliferative activities against three human cancer cell lines, including HepG2, A549 and HeLa cells, using 3-[4,5-dimethylthiazol-2-yl]-2,5 diphenyl tetrazolium bromide (MTT) assays. Paclitaxel, a well-known tubulin inhibitor, was used as a positive control.
as §2
After 24 h, cell morphology was observed using a light microscope, and then 20 µl of MTT solution (5 mg ml^−1) was added to the well and incubated for 4 h, then cell survival was determined by measuring the optical density (OD) absorbance at a wavelength of 570 nm using an ELISA microplate reader. […] Cisplatin and paclitaxel were used as positive control drugs.

[3] = test system: A549 cells; assay: MTT anti-proliferation assay, A549; assay type: cell-based, human; conditions: 24 h, average of three determinations
Procedure: as §4, with “control. […] Therefore, the inhibitory activity of the compounds depended not only on the 2-position substitution of acrylic acid, but also on the 3-position substitution of acrylic acid.” for “control.”
as §2, §3

[4] = test system: Vero cells; assay: MTT cytotoxicity test, Vero; assay type: cell-based, African green monkey; conditions: 24 h, average of three determinations
Procedure: as §1, §2, §3

[5] = test system: HepG2 cells; assay: MTT anti-proliferation assay, HepG2; assay type: cell-based, human; conditions: 24 h, average of three determinations
Procedure: as §4, with “control. […] Therefore, the inhibitory activity of the compounds depended not only on the 2-position substitution of acrylic acid, but also on the 3-position substitution of acrylic acid.” for “control.”
as §2, §3

[6] = test system: HepG2 cells; assay: Cell cycle assay by flow cytometry; assay type: cell-based, human; conditions: HepG2, 20 µM, 24 h
Procedure: To evaluate the effects of compound r on cell cycle progression of HepG2, cells were treated with compound r at different concentrations (0, 5, 15 and 45 µM) for 24 h and then examined by flow cytometry. The accumulation of cells in S phase increased with increasing concentration of compound r. Approximately 18.36 ± 1.93%, 19.39 ± 2.06%, 29.9 ± 0.87% and 34.24 ± 1.00% of cells were arrested in S phase in response to 0, 5, 15 and 45 µM compound r, respectively. In comparison, 39.56 ± 0.97% cells were arrested in S phase after treatment with 20 µM cisplatin for 24 h.
Figure 5. Cells treated with 0, 5, 15 and 45 µM compound r for 24 h were collected and analysed by flow cytometry. Images were representative of three independent experiments. Values represented the mean ± s.d.; versus blank, *p < 0.01, **p < 0.001; versus control ^#p < 0.01, ^##p < 0.001.
Cells were treated with compound r (0, 5, 15, 45 µM) or 20 µM of cisplatin as the control for 24 h. Cells were collected by centrifugation (1000 rpm, 5 min), washed with PBS and fixed with 70% ice-cold ethanol overnight at 4°C. The cell cycle was examined on a flow cytometer using a cell cycle analysis kit (Beyotime Biotechnologyin, China) in accordance with the manufacturer's instructions.

[7] = test system: HepG2 cells; assay: Morphologic observation by light microscope; assay type: cell-based, human; conditions: HepG2, cisplatin 20 µM, 24 h
Procedure: Morphological observations can directly reflect the effects of drugs on cells. HepG2 cells were cultured with increasing concentrations of compound r (0, 5, 15 and 45 µM) for 24 h and observed using a light microscope. The cell morphology was clearly altered with the increase in drug concentration (figure 2).
Figure 2. Effect of compound r on the microscopic examination of HepG2 cells. Morphology of HepG2 treated with compound r (0, 5, 15 and 45 µM) and cisplatin (20 µM) for 24 h. Light microscopy photographs, with 40× objective.
as §3

Molecule: 3-(4-hydroxy-3-methoxy-5-nitrophenyl)-2-(4-methoxyphenyl) acrylic acid [compound s]
- CC50 [1]: 83 ± 2 µM
- IC50 [2]: 39 ± 2 µM
- IC50 [3]: 15 ± 4 µM
- CC50 [4]: > 100 µM
- IC50 [5]: 42 ± 4 µM

Molecule: N.N.[Cl][Pt][Cl] [cisplatin, reference compound]
- cells arrested in S phase [6]: 39.56 ± 0.97%
- cell morphology [7]: rounded shape
